Assay results as given in patent US7531646B2, “β-D-ribosidase activity indicators with a chromogenic substrate” (priority 2001, dated 2009).

Columns and labels:
Aeromonas sobria = assay: Substrate hydrolysis on Columbia agar; assay type: cell-based; conditions: Aeromonas sobria NCTC 11215; 300 mg/l; 18 hours
Vibrio hollisae = assay: Substrate hydrolysis on Columbia agar; assay type: cell-based; conditions: Vibrio hollisae NCTC 11640; 300 mg/l; 18 hours
C. freundii = assay: Substrate hydrolysis on Columbia agar; assay type: cell-based; conditions: 300 mg/l, 18 hours
Shigella dysenteriae = assay: Substrate hydrolysis on Columbia agar; assay type: cell-based; conditions: 300 mg/l, 18 hours
Staphylococcus aureus = assay: Substrate hydrolysis on Columbia agar; assay type: cell-based; conditions: 300 mg/l, 18 hours
Streptococcus oralis = assay: Substrate hydrolysis on Columbia agar; assay type: cell-based; conditions: Streptococcus oralis NCTC11427; 300 mg/l; 18 hours
C. diversus = assay: Substrate hydrolysis on Columbia agar; assay type: cell-based; conditions: 300 mg/l, 18 hours
Enterococcus raffinosis = assay: Substrate hydrolysis on Columbia agar; assay type: cell-based; conditions: Enterococcus raffinosis NCTC 13192; 300 mg/l; 18 hours
Enterococcus faecalis = assay: Substrate hydrolysis on Columbia agar; assay type: cell-based; conditions: 300 mg/l, 18 hours
Enterococcus casseflavus = assay: Substrate hydrolysis on Columbia agar; assay type: cell-based; conditions: Enterococcus casseflavus NCTC 12361; 300 mg/l; 18 hours
[1] = tested on: Haemolytic streptococcus G; assay: Substrate hydrolysis on Columbia agar; assay type: cell-based; conditions: 300 mg/l, 18 hours
E. aerogenes = assay: Substrate hydrolysis on Columbia agar; assay type: cell-based; conditions: 300 mg/l, 18 hours
[2] = tested on: Arcanobacterium haemolyticus; assay: Substrate hydrolysis on Columbia agar; assay type: cell-based; conditions: Arcanobacterium haemolyticus NCTC 52; 300 mg/l; 18 hours
Y. enterocolitica = assay: Substrate hydrolysis on Columbia agar; assay type: cell-based; conditions: 300 mg/l, 18 hours
Streptococcus pneumoniae = assay: Substrate hydrolysis on Columbia agar; assay type: cell-based; conditions: Streptococcus pneumoniae NCTC 7465; 300 mg/l; 18 hours
P. aeruginosa = assay: Substrate hydrolysis on Columbia agar; assay type: cell-based; conditions: 300 mg/l, 18 hours
Streptococcus gordonii = assay: Substrate hydrolysis on Columbia agar; assay type: cell-based; conditions: Streptococcus gordonii NCTC 7865; 300 mg/l; 18 hours
Enterococcus durans = assay: Substrate hydrolysis on Columbia agar; assay type: cell-based; conditions: Enterococcus durans NCTC 8307; 300 mg/l; 18 hours
Serratia marcescens = assay: Substrate hydrolysis on Columbia agar; assay type: cell-based; conditions: Serratia marcescens NCTC 10211; 300 mg/l; 18 hours
Listeria ivanovii = assay: Substrate hydrolysis on Columbia agar; assay type: cell-based; conditions: Listeria ivanovii PHLS wild; 300 mg/l; 18 hours
Salmonella typhi = assay: Substrate hydrolysis on Columbia agar; assay type: cell-based; conditions: Salmonella typhi NCTC 8385; 300 mg/l; 18 hours
Salmonella hadar = assay: Substrate hydrolysis on Columbia agar; assay type: cell-based; conditions: Salmonella hadar SAX 57; 300 mg/l; 18 hours
[3] = tested on: Streptococcus constellatus; assay: Substrate hydrolysis on Columbia agar; assay type: cell-based; conditions: Streptococcus constellatus NCTC 11325; 300 mg/l; 18 hours
Streptococcus agalactiae = assay: Substrate hydrolysis on Columbia agar; assay type: cell-based; conditions: Streptococcus agalactiae NCTC 8181; 300 mg/l; 18 hours
Bacillus cereus = assay: Substrate hydrolysis on Columbia agar; assay type: cell-based; conditions: Bacillus cereus NCTC; 300 mg/l; 18 hours
C. diphtheriae = assay: Substrate hydrolysis on Columbia agar; assay type: cell-based, Corynebacterium diphtheriae; conditions: 300 mg/l, 18 hours
Streptococcus mitis = assay: Substrate hydrolysis on Columbia agar; assay type: cell-based; conditions: Streptococcus mitis NCTC 12261; 300 mg/l; 18 hours
Enterococcus faecium = assay: Substrate hydrolysis on Columbia agar; assay type: cell-based; conditions: 300 mg/l, 18 hours
Aeromonas hydrophila = assay: Substrate hydrolysis on Columbia agar; assay type: cell-based; set-up: key to the marks not given beside the values; conditions: Aeromonas hydrophila NCTC 8049; 300 mg/l; 18 hours
Gram negative bacteria = assay: Substrate hydrolysis on Columbia agar, summary of screen; assay type: cell-based
Hafnia alvei = assay: Substrate hydrolysis on Columbia agar; assay type: cell-based; conditions: 300 mg/l, 18 hours

3′,4′-dihydroxyflavone-4′-β-D-glucopyranoside sodium salt [DHF-glucoside]
Hydrolysis by Gram negative bacteria (Aeromonas sobria): −
Hydrolysis by Gram negative bacteria (Vibrio hollisae): −
Hydrolysis by Gram negative bacteria (C. freundii; C. freundii CFR 1): +
Hydrolysis by Gram negative bacteria (C. freundii; C. freundii CFR 2): −
Hydrolysis by Gram negative bacteria (C. freundii; C. freundii CFR 3): −
Hydrolysis by Gram negative bacteria (C. freundii; C. freundii CFR 4): +
Hydrolysis by Gram negative bacteria (C. freundii; C. freundii NCTC 9750): +
Hydrolysis by Gram negative bacteria (Shigella dysenteriae; Shigella dysenteriae (type 2) NCTC 9952): −
Hydrolysis by Gram negative bacteria (Shigella dysenteriae; Shigella dysenteriae (type 3) NCTC 9720): −
Hydrolysis by Gram negative bacteria (Shigella dysenteriae; Shigella dysenteriae (type 4) NCTC 9759): −
Hydrolysis by Gram positive organisms (Staphylococcus aureus; Staphylococcus aureus 1): −
Hydrolysis by Gram positive organisms (Staphylococcus aureus; Staphylococcus aureus 2): −
Hydrolysis by Gram positive organisms (Staphylococcus aureus; Staphylococcus aureus 3): −
Hydrolysis by Gram positive organisms (Staphylococcus aureus; Staphylococcus aureus 4): −
Hydrolysis by Gram positive organisms (Staphylococcus aureus; Staphylococcus aureus 5): −
Hydrolysis by Gram positive organisms (Streptococcus oralis): −
Hydrolysis by Gram negative bacteria (C. diversus; C. diversus CDI 1): −
Hydrolysis by Gram negative bacteria (C. diversus; C. diversus CDI 2): −
Hydrolysis by Gram positive organisms (Enterococcus raffinosis): ++
Hydrolysis by Gram positive organisms (Enterococcus faecalis; Enterococcus faecalis 1): ++
Hydrolysis by Gram positive organisms (Enterococcus faecalis; Enterococcus faecalis 2): ++
Hydrolysis by Gram positive organisms (Enterococcus faecalis; Enterococcus faecalis 3): ++
Hydrolysis by Gram positive organisms (Enterococcus faecalis; Enterococcus faecalis 4): ++
Hydrolysis by Gram positive organisms (Enterococcus faecalis; Enterococcus faecalis 5): ++
Hydrolysis by Gram positive organisms (Enterococcus faecalis; Enterococcus faecalis 6): ++
Hydrolysis by Gram positive organisms (Enterococcus faecalis; Enterococcus faecalis 7): ++
Hydrolysis by Gram positive organisms (Enterococcus casseflavus): ++
Hydrolysis by Gram positive organisms ([1]; Haemolytic streptococcus G 1): −
Hydrolysis by Gram positive organisms ([1]; Haemolytic streptococcus G 2): −
Hydrolysis by Gram positive organisms ([1]; Haemolytic streptococcus G 3): −
Hydrolysis by Gram negative bacteria (E. aerogenes; E. aerogenes EAE 1): +
Hydrolysis by Gram negative bacteria (E. aerogenes; E. aerogenes NCIMB 10102): +
Hydrolysis by Gram positive organisms [2]: −
Hydrolysis by Gram negative bacteria (Y. enterocolitica; Y. enterocolitica NCTC 10460): −
Hydrolysis by Gram negative bacteria (Y. enterocolitica; Y. enterocolitica NCTC 11176): −
Hydrolysis by Gram negative bacteria (Y. enterocolitica; Y. enterocolitica NCTC 11177): −
Hydrolysis by Gram negative bacteria (Y. enterocolitica; Y. enterocolitica NCTC 11600): −
Hydrolysis by Gram positive organisms (Streptococcus pneumoniae): −
Hydrolysis by Gram negative bacteria (P. aeruginosa; P. aeruginosa ATCC 10145): −
Hydrolysis by Gram negative bacteria (P. aeruginosa; P. aeruginosa NCTC 10662): −
Hydrolysis by Gram positive organisms (Streptococcus gordonii): −
Hydrolysis by Gram positive organisms (Enterococcus durans): ++
Hydrolysis by Gram negative bacteria (Serratia marcescens): +
Hydrolysis by Gram positive organisms (Listeria ivanovii): ++
Hydrolysis by Gram negative bacteria (Salmonella typhi): −
Hydrolysis by Gram negative bacteria (Salmonella hadar): −
Hydrolysis by Gram positive organisms [3]: −
Hydrolysis by Gram positive organisms (Streptococcus agalactiae): −
Hydrolysis by Gram positive organisms (Bacillus cereus): +
Hydrolysis by Gram positive organisms (C. diphtheriae; C. diphtheriae NCTC 3987): −
Hydrolysis by Gram positive organisms (C. diphtheriae; C. diphtheriae NCTC 10356): −
Hydrolysis by Gram positive organisms (C. diphtheriae; C. diphtheriae NCTC 11397): −
Hydrolysis by Gram positive organisms (C. diphtheriae; Corynebacterium diphtheria NEQAS): −
Hydrolysis by Gram positive organisms (Streptococcus mitis): −
Hydrolysis by Gram positive organisms (Enterococcus faecium; Enterococcus faecium 1): ++
Hydrolysis by Gram positive organisms (Enterococcus faecium; Enterococcus faecium 2): ++
Hydrolysis by Gram positive organisms (Enterococcus faecium; Enterococcus faecium 3): ++
Hydrolysis by Gram positive organisms (Enterococcus faecium; Enterococcus faecium 4): ++
Hydrolysis by Gram positive organisms (Enterococcus faecium; Enterococcus faecium 5): ++
Hydrolysis by Gram positive organisms (Enterococcus faecium; Enterococcus faecium 6): ++
Hydrolysis by Gram positive organisms (Enterococcus faecium; Enterococcus faecium 7): ++
Hydrolysis by Gram positive organisms (Enterococcus faecium; Enterococcus faecium 121285 - wild ′99): ++
Hydrolysis by Gram negative bacteria (Aeromonas hydrophila): ++
strains known to be producers of β-glucosidase which did not appear to hydrolyse the substrate (Gram negative bacteria; of 120 Gram negative bacteria tested): 11 strains
Gram negative bacteria tested that hydrolysed the substrate (Gram negative bacteria; of 120 Gram negative bacteria tested, 300 mg/l, 18 hours): 20%
colouration and diffusion of positive strains (Gram negative bacteria; positive Gram negative strains, agar): brown/black colouration which showed no diffusion in agar
Hydrolysis by Gram negative bacteria (Hafnia alvei; Hafnia alvei HAL 2): −
Hydrolysis by Gram negative bacteria (Hafnia alvei; Hafnia alvei NCTC 8105): −
